# Calls of active or inactive are those of the source. The calls are words filed in the database; no cut-off is given here.
# Experiments:
# THP-1 [1] = assay: Antiinflammatory activity in human PMA-stimulated THP1 cells assessed as inhibition of LPS-induced IL-6 production at 10 uM treated 30 mins before LPS challenge measured after 24 hrs by ELISA; format: functional
# Aspergillus niger [2] = assay: Antifungal activity against Aspergillus niger by agar well diffusion method; format: functional
# Candida albicans [3] = assay: Antifungal activity against Candida albicans by agar well diffusion method; format: functional
# THP-1 [4] = assay: Antiinflammatory activity in human PMA-stimulated THP1 cells assessed as inhibition of LPS-induced TNFalpha production at 10 uM treated 30 mins before LPS challenge measured after 24 hrs by ELISA; format: functional
# Escherichia coli [5] = assay: Antibacterial activity against Escherichia coli by agar well diffusion method; format: functional
# Salmonella typhimurium [6] = assay: Antibacterial activity against Salmonella typhimurium by agar well diffusion method; format: functional, Salmonella enterica subsp. enterica serovar Typhimurium; conditions: Salmonella enterica
# Staphylococcus aureus [7] = assay: Antibacterial activity against Staphylococcus aureus by agar well diffusion method; format: functional
# Bacillus subtilis [8] = assay: Antibacterial activity against Bacillus subtilis by agar well diffusion method; format: functional
# Fusarium solani [9] = assay: Antifungal activity against Fusarium solani by agar well diffusion method; format: functional
# Aspergillus flavus [10] = assay: Antifungal activity against Aspergillus flavus by agar well diffusion method; format: functional
# Salmonella typhimurium [11] = assay: Antibacterial activity against Salmonella typhimurium up to 200 ug/ml by agar well diffusion method; format: functional, organism-based; conditions: Salmonella enterica subsp. enterica serovar Typhimurium
# Escherichia coli [12] = assay: Antibacterial activity against Escherichia coli up to 200 ug/ml by agar well diffusion method; format: functional, organism-based
# Aspergillus niger [13] = assay: Antifungal activity against Aspergillus niger up to 200 ug/ml by agar well diffusion method; format: functional, organism-based
# Fusarium solani [14] = assay: Antifungal activity against Fusarium solani up to 200 ug/ml by agar well diffusion method; format: functional, organism-based
# Aspergillus flavus [15] = assay: Antifungal activity against Aspergillus flavus up to 200 ug/ml by agar well diffusion method; format: functional, organism-based
# Candida albicans [16] = assay: Antifungal activity against Candida albicans up to 200 ug/ml by agar well diffusion method; format: functional, organism-based
# Staphylococcus aureus [17] = assay: Antibacterial activity against Staphylococcus aureus up to 200 ug/ml by agar well diffusion method; format: functional, organism-based
# Bacillus subtilis [18] = assay: Antibacterial activity against Bacillus subtilis up to 200 ug/ml by agar well diffusion method; format: functional, organism-based
Structure (SMILES),MIC (Aspergillus niger [2]) [µg/mL],MIC (Candida albicans [3]) [µg/mL],MIC (Escherichia coli [5]) [µg/mL],MIC (Salmonella typhimurium [6]) [µg/mL],MIC (Staphylococcus aureus [7]) [µg/mL],MIC (Bacillus subtilis [8]) [µg/mL],MIC (Fusarium solani [9]) [µg/mL],MIC (Aspergillus flavus [10]) [µg/mL],inhibition at 10 µM (THP-1 [1]) [%],inhibition at 10 µM (THP-1 [4]) [%],Activity (Salmonella typhimurium [11]),Activity (Escherichia coli [12]),Activity (Aspergillus niger [13]),Activity (Fusarium solani [14]),Activity (Aspergillus flavus [15]),Activity (Candida albicans [16]),Activity (Staphylococcus aureus [17]),Activity (Bacillus subtilis [18])
COc1ccc(OC)c(S(=O)(=O)Nc2ccc(-c3cc(Nc4cccc(C(F)(F)F)c4)ncn3)cc2)c1,15,25,25,35,45,30,15,40,26,8,,,,,,,,
Clc1ccc(COC(Cn2ccnc2)c2ccc(Cl)cc2Cl)c(Cl)c1 (configuration not stated) [MICONAZOLE],15,20,,,,,15,20,,,,,,,,,,
Nc1ccc(-c2cc(Nc3cccc(C(F)(F)F)c3)ncn2)cc1,80,80,,,,,90,80,6,0,inactive,inactive,,,,,inactive,inactive
O=S(=O)(Nc1ccc(-c2cc(Nc3cccc(C(F)(F)F)c3)ncn2)cc1)c1ccc(OC(F)(F)F)cc1,,,15,10,15,20,,,8,0,,,inactive,inactive,inactive,inactive,,
O=C(O)c1cn(C2CC2)c2cc(N3CCNCC3)c(F)cc2c1=O [CIPROFLOXACIN],,,15,20,20,15,,,,,,,,,,,,
O=[N+]([O-])c1ccc(-c2cc(Nc3cccc(C(F)(F)F)c3)ncn2)cc1,,,,,,,,,0,0,inactive,inactive,inactive,inactive,inactive,inactive,inactive,inactive
N#Cc1cccc(NC(=S)Nc2ccc(-c3cc(Nc4cccc(C(F)(F)F)c4)ncn3)cc2)c1,40,20,90,90,90,,20,20,16,11,,,,,,,,inactive
FC(F)(F)c1cccc(Nc2cc(-c3ccc(NC(=S)Nc4ccc(Cl)cc4)cc3)ncn2)c1,,,30,30,35,35,90,,28,23,,,inactive,,inactive,inactive,,
COc1ccc(NC(=S)Nc2ccc(-c3cc(Nc4cccc(C(F)(F)F)c4)ncn3)cc2)cc1,,80,,,,,90,90,8,3,inactive,inactive,inactive,,,,inactive,inactive
CC1(C)OB(c2ccc([N+](=O)[O-])cc2)OC1(C)C,,90,,,,,,,0,0,inactive,inactive,inactive,inactive,inactive,,inactive,inactive
FC(F)(F)c1cccc(Nc2cc(-c3ccc(NC(=S)Nc4cc(C(F)(F)F)cc(C(F)(F)F)c4)cc3)ncn2)c1,,90,25,25,20,25,75,,0,0,,,inactive,,inactive,,,
Cc1ccc(F)cc1S(=O)(=O)Nc1ccc(-c2cc(Nc3cccc(C(F)(F)F)c3)ncn2)cc1,,90,15,15,15,10,90,90,56,48,,,inactive,,,,,
Cc1cccc(S(=O)(=O)Nc2ccc(-c3cc(Nc4cccc(C(F)(F)F)c4)ncn3)cc2)c1,,,90,90,90,,,,25,14,,,inactive,inactive,inactive,inactive,,inactive
O=S(=O)(Nc1ccc(-c2cc(Nc3cccc(C(F)(F)F)c3)ncn2)cc1)c1ccccc1OC(F)(F)F,60,30,20,10,10,10,20,20,0,0,,,,,,,,
O=[N+]([O-])c1ccc(-c2cc(Cl)ncn2)cc1,90,90,,,,,,90,0,0,inactive,inactive,,inactive,,,inactive,inactive
FC(F)(F)c1cccc(Nc2cc(-c3ccc(NC(=S)Nc4ccccc4C(F)(F)F)cc3)ncn2)c1,25,15,,,,,15,15,82,68,inactive,inactive,,,,,inactive,inactive
O=S(=O)(Nc1ccc(-c2cc(Nc3cccc(C(F)(F)F)c3)ncn2)cc1)c1ccc(Br)cc1,95,80,,,80,,,95,11,6,inactive,inactive,,,,,,inactive
N#Cc1cccc(S(=O)(=O)Nc2ccc(-c3cc(Nc4cccc(C(F)(F)F)c4)ncn3)cc2)c1,20,55,25,45,40,65,20,35,12,0,,,,,,,,

# Continued, in another order:
MIC (Aspergillus niger [2]) [µg/mL],MIC (Candida albicans [3]) [µg/mL],MIC (Escherichia coli [5]) [µg/mL],MIC (Salmonella typhimurium [6]) [µg/mL],MIC (Staphylococcus aureus [7]) [µg/mL],MIC (Bacillus subtilis [8]) [µg/mL],MIC (Fusarium solani [9]) [µg/mL],MIC (Aspergillus flavus [10]) [µg/mL],Structure (SMILES),inhibition at 10 µM (THP-1 [1]) [%],inhibition at 10 µM (THP-1 [4]) [%],Activity (Salmonella typhimurium [11]),Activity (Escherichia coli [12]),Activity (Aspergillus niger [13]),Activity (Fusarium solani [14]),Activity (Aspergillus flavus [15]),Activity (Candida albicans [16]),Activity (Staphylococcus aureus [17]),Activity (Bacillus subtilis [18])
75,40,,,90,90,60,30,Cc1ccc(NC(=O)Nc2ccc(-c3cc(Nc4cccc(C(F)(F)F)c4)ncn3)cc2)cc1C,27,16,inactive,inactive,,,,,,
35,55,30,30,35,30,20,20,COc1cccc(NC(=O)Nc2ccc(-c3cc(Nc4cccc(C(F)(F)F)c4)ncn3)cc2)c1,18,11,,,,,,,,
,,20,40,25,40,,,CC(C)c1ccc(NC(=O)Nc2ccc(-c3cc(Nc4cccc(C(F)(F)F)c4)ncn3)cc2)cc1,90,71,,,inactive,inactive,inactive,inactive,,
,90,,,90,,,,O=C(Nc1ccc(-c2cc(Nc3cccc(C(F)(F)F)c3)ncn2)cc1)Nc1cccc(Cl)c1F,96,78,inactive,inactive,inactive,inactive,inactive,,,inactive
90,80,,,,,75,80,N#Cc1ccc(NC(=O)Nc2ccc(-c3cc(Nc4cccc(C(F)(F)F)c4)ncn3)cc2)cc1,80,61,inactive,inactive,,,,,inactive,inactive
35,25,35,80,25,40,20,20,O=C(Nc1ccc(-c2cc(Nc3cccc(C(F)(F)F)c3)ncn2)cc1)Nc1cccc(C(F)(F)F)c1,40,28,,,,,,,,
,90,90,90,75,90,90,90,CSc1ccc(NC(=O)Nc2ccc(-c3cc(Nc4cccc(C(F)(F)F)c4)ncn3)cc2)cc1,0,0,,,inactive,,,,,
,90,90,,90,90,90,90,Fc1ccccc1NC(=S)Nc1ccc(-c2cc(Nc3cccc(C(F)(F)F)c3)ncn2)cc1,62,50,inactive,,inactive,,,,,

# From ChEMBL document CHEMBL2021896, “A novel pyrimidine derivatives with aryl urea, thiourea and sulfonamide moieties: synthesis, anti-inflammatory and antimicrobial evaluation” (2012)
